Source: patent US7342011B2, “Rifamycin analogs and uses thereof” (priority 2003, dated 2008)
In brackets after ≈: the same amount, converted by molar mass.

Each compound was assayed on E. coli (assay: MIC assay, E. coli).
Type: cell-based
For “25-O-deacetyl-5′-[(8aR)octahydropyrrolo[1,2-a]pyrazin-2-yl]benzthiazinorifamycin [Compound 78]”, the “MIC (μg/mL) E. coli” value was 4 µg/mL.
In the case of COC1C=COC2(C)Oc3c(C)c(O)c4c(=O)c(c5oc6cc(N7CC8C(C7)C8NC(=O)OCC[Si](C)(C)C)cc(O)c6nc-5c4c3C2=O)NC(=O)C(C)=CC=CC(C)C(O)C(C)C(O)C(C)C(OC(C)=O)C1C [Compound 2, 3′-hydroxy-5′-[6-(2-trimethylsilyl)ethylcarbamyl-(1R,5S)-3-azabicyclo[3.1.0]hex-3-yl]benzoxazinorifamycin], the “MIC (μg/mL) E. coli” value is reported as >8 µg/mL.
In the case of COC1C=COC2(C)Oc3c(C)c(O)c4c(=O)c(c5oc6cc(N7CC8C(N)C8C7)cc(O)c6nc-5c4c3C2=O)NC(=O)C(C)=CC=CC(C)C(O)C(C)C(O)C(C)C(OC(C)=O)C1C [Compound 4, 3′-hydroxy-5′-[6-amino-(1R,5S)-3-azabicyclo[3.1.0]hex-3-yl]benzoxazinorifamycin], the “MIC (μg/mL) E. coli” value is reported as >8 µg/mL.
In the case of CO[C@H]1/C=C/O[C@@]2(C)Oc3c(C)c(O)c4c(=O)c(c5oc6cc(N7C[C@@H]8CCCN[C@@H]8C7)cc(O)c6nc-5c4c3C2=O)NC(=O)/C(C)=C\C=C\[C@H](C)[C@H](O)[C@@H](C)[C@@H](O)[C@@H](C)[C@H](OC(C)=O)[C@@H]1C [Compound 5, 3′-hydroxy-5′-[(4aS,7aS)-octahydro-6H-pyrrolo[3,4-b]pyridin-6-yl]benzoxazinorifamycin], the “MIC (μg/mL) E. coli” value is reported as 8 µg/mL (≈ 8.65 µM).
In the case of CO[C@H]1/C=C/O[C@@]2(C)Oc3c(C)c(O)c4c(=O)c(c5oc6cc(N7C[C@@H]8CCCN[C@@H]8C7)cc(O)c6nc-5c4c3C2=O)NC(=O)/C(C)=C\C=C\[C@H](C)[C@H](O)[C@@H](C)[C@@H](O)[C@@H](C)[C@H](O)[C@@H]1C [Compound 7, 25-O-deacetyl-3′-hydroxy-5′-[(4aS,7aS)-octahydro-6H-pyrrolo[3,4-b]pyridin-6-yl]benzoxazinorifamycin], the “MIC (μg/mL) E. coli” value is reported as >8 µg/mL.
In the case of CO[C@H]1/C=C/O[C@@]2(C)Oc3c(C)c(O)c4c(=O)c(c5oc6cc(N7CCC(N8CCOCC8)CC7)cc(O)c6nc-5c4c3C2=O)NC(=O)/C(C)=C\C=C\[C@H](C)[C@H](O)[C@@H](C)[C@@H](O)[C@@H](C)[C@H](OC(C)=O)[C@@H]1C [Compound 9, 3′-hydroxy-5′-(4-morpholinyl-1-piperidinyl)benzoxazinorifamycin], the “MIC (μg/mL) E. coli” value is reported as 8 µg/mL (≈ 8.26 µM).
For CO[C@H]1/C=C/O[C@@]2(C)Oc3c(C)c(O)c4c(=O)c(c5oc6cc(N7CC8CCC(C7)N8)cc(O)c6nc-5c4c3C2=O)NC(=O)/C(C)=C\C=C\[C@H](C)[C@H](O)[C@@H](C)[C@@H](O)[C@@H](C)[C@H](OC(C)=O)[C@@H]1C [Compound 10, 3′-hydroxy-5′-(3,8-diazabicyclo[3.2.1]octan-3-yl)benzoxazinorifamycin], the “MIC (μg/mL) E. coli” value was >8 µg/mL.
For CO[C@H]1/C=C/O[C@@]2(C)Oc3c(C)c(O)c4c(=O)c(c5oc6cc(N7CCC(N8CCOCC8)CC7)cc(O)c6nc-5c4c3C2=O)NC(=O)/C(C)=C\C=C\[C@H](C)[C@H](O)[C@@H](C)[C@@H](O)[C@@H](C)[C@H](O)[C@@H]1C [Compound 11, 25-O-deacetyl-3′-hydroxy-5′-(4-morpholinyl-1-piperidinyl)benzoxazinorifamycin], the “MIC (μg/mL) E. coli” value was 4 µg/mL (≈ 4.31 µM).
CO[C@H]1/C=C/O[C@@]2(C)Oc3c(C)c(O)c4c(=O)c(c5oc6cc(N7C[C@H]8CCCN[C@H]8C7)cc(O)c6nc-5c4c3C2=O)NC(=O)/C(C)=C\C=C\[C@H](C)[C@H](O)[C@@H](C)[C@@H](O)[C@@H](C)[C@H](OC(C)=O)[C@@H]1C [Compound 12, 3′-hydroxy-5′-[(4aR,7aR)-octahydro-6H-pyrrolo[3,4-b]pyridin-6-yl]benzoxazinorifamycin] was tested, and the “MIC (μg/mL) E. coli” value was 8 µg/mL (≈ 8.65 µM).
In the case of CO[C@H]1/C=C/O[C@@]2(C)Oc3c(C)c(O)c4c(=O)c(c5oc6cc(N7CCC(NC(=O)OCC(C)C)CC7)cc(O)c6nc-5c4c3C2=O)NC(=O)/C(C)=C\C=C\[C@H](C)[C@H](O)[C@@H](C)[C@@H](O)[C@@H](C)[C@H](OC(C)=O)[C@@H]1C [Compound 13], the “MIC (μg/mL) E. coli” value is reported as 4 µg/mL (≈ 4 µM).
